Reference: paper PMC7080406 (eLife, 2020)
Several values for one entry are separate records, joined by “and”; a condition that tells them apart may be missing. Equal values may be shown once. Entries after “also recorded” stand apart in the source; their conditions may differ. Read-outs that look alike come from different tables or passages of the source.

How the values were obtained:
MT1 [1] = biological target: T1, MT1 (Homo sapiens, UniProt P48039); assay: [3H]melatonin competition radioligand binding, MT1 membranes; conditions: read-out: MT1 pKi ± SEM (converted)
T1 construct: expressed in transfected cells; host or cells: HEK293T (ATCC CRL-11268), transient transfection
T1 sequence (P48039 whole entry): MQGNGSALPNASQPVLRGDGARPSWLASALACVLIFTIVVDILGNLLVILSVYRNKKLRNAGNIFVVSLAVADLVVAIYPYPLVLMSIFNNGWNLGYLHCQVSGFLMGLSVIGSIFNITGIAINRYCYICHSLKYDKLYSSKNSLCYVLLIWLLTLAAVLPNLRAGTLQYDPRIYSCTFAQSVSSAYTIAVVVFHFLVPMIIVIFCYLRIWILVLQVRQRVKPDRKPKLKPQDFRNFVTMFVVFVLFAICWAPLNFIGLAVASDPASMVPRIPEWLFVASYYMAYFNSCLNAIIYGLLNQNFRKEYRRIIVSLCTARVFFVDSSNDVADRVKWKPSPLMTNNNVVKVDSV
Description: (§1) The Radioligand binding assays were conducted by the NIMH Psychoactive Drug Screening Program (PDSP). The NIMH PDSP is directed by Bryan L. Roth, MD, PhD, at the University of North Carolina at Chapel Hill, North Carolina, and Program Officer Jamie Driscoll at NIMH, Bethesda, MD. Binding assay procedures and protocols are also available online at http://pdspdb.unc.edu/pdspWeb/?site=assays. […] Assay plates were sealed and incubated for 4 hr at 37°C in a humidified incubator until harvesting. Plates were harvested using vacuum filtration onto 0.3% polyethyleneimine pre-soaked 96-well Filtermat A (PerkinElmer) and washed three times with cold wash buffer (50 mM Tris, pH 7.4). Filters were dried and melted with a scintillation cocktail (Meltilex, PerkinElmer). Radioactivity was counted using a Wallac TriLux Microbeta counter (PerkinElmer). Results were analyzed using GraphPad Prism 7.0.

MT1 [2] = biological target: T1, MT1; assay: GloSensor Gi/o-mediated cAMP production inhibition assay, MT1; assay type: cell-based; conditions: for EC50: Gi/o mediated
Description: (§2) Briefly, HEK293 T cells (as above) were transiently co-transfected with receptor (MT1 or MT2) and GloSensor cAMP (Promega) plasmids overnight, plated in Poly-L-Lysine coated 384-well white clear bottom plates in DMEM + 1% dialyzed FBS. Cells were used for assays at a minimum of 6 hr after plating. Culture medium was first removed and cells were stimulated with drugs in assay buffer (1x HBSS, 20 mM HEPES, 1 mg/ml BSA, 0.1 mg/ml ascorbic acid, pH 7.4) for 15 min at room temperature (this and all the following steps), followed by addition of a mixture of isoproterenol (final of 100 nM) and luciferin (final of 1 mM) for Gi/o-cAMP production inhibition assays and luciferin (final of 1 mM) for Gs-cAMP production assays. The plates were counted for luminescence after 25 min in a luminescence plate reader. Results were analyzed using GraphPad Prism 7.0.

[3] = system: panel of 47 common drug targets (GPCRs, ion-channels and transporters); assay: Binding profiling at a panel of 47 common drug targets; conditions: final concentration of 10 μM
Description: as §1, with “http://pdspdb.unc.edu/pdspWeb/?site=assays. All the radioligand binding assays were performed using membranes prepared from transiently transfected HEK293T cells (purchased from ATCC, CRL-11268, authenticated by the supplier using morphology, growth characteristics, and STR profiling and certified mycoplasma-free) and in standard binding buffer (50 mM Tris, 10 mM MgCl2, 0.1 mM EDTA, 0.1% BSA, 0.01% ascorbic acid, pH 7.4) as recently reported ([Stauch et al., 2019]).” for “http://pdspdb.unc.edu/pdspWeb/?site=assays.”

MT2 [4] = biological target: T2, MT2 (Homo sapiens, UniProt P49286); assay: Tango β-arrestin recruitment assay, MT2; assay type: cell-based; set-up: expressed in transfected cells; transient transfection; conditions: result in words; compared to G-protein
T2 sequence (P49286 1-362): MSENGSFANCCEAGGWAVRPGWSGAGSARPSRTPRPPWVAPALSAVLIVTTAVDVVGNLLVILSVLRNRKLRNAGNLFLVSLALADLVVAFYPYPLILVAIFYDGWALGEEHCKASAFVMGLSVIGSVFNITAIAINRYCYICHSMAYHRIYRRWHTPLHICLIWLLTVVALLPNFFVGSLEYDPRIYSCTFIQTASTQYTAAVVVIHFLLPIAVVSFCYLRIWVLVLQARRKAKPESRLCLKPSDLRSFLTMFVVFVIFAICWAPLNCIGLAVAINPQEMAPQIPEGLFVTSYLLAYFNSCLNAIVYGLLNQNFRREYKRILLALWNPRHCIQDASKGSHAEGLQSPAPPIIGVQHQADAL
Description: Tango arrestin recruitment assays were carried out according to the previously published procedure [Kroeze et al. (2015)]. In brief, HTLA cells were transiently transfected with receptor TANGO DNA constructs overnight in DMEM with 10% FBS. Transfected cells were then plated into poly-L-Lys coated 384-well plates using DMEM supplemented with 1% dialyzed FBS. After 6 hr incubation, drug dilutions, prepared in DMEM with 1% dFBS, were added for incubation overnight (16–20 hr). Medium and drug solutions were removed, Bright-Glo reagent (20 uL/well) was added for luminescence counting 20 min later. Results were analyzed in GraphPad Prism 7.0.

MT2 [5] = biological target: T2, MT2; assay: [3H]melatonin competition radioligand binding, MT2 membranes; set-up: expressed in transfected cells; host or cells: HEK293T (ATCC CRL-11268), transient transfection; conditions: read-out: MT2 pKi ± SEM (converted)
Description: as §1

MT2 [6] = biological target: T2, MT2; assay: GloSensor Gi/o-mediated cAMP production inhibition assay, MT2; assay type: cell-based; set-up: expressed in transfected cells; host or cells: HEK293T (ATCC CRL-11268), transient transfection
Description: as §2

MT2 [7] = biological target: T2, MT2; assay: Bias factor, Gi-cAMP versus Tango (Black and Leff operational model), MT2; assay type: cell-based; set-up: expressed in transfected cells; host or cells: HEK293T (ATCC CRL-11268), transient transfection; conditions: G-protein over β-arrestin at MT2; reference melatonin; 10^ΔΔLog(τ/KA)
Description: Bias factors were estimated according to the published procedure [Kenakin et al. (2012)] with modifications. Briefly, normalized and pooled results were analyzed by fitting the Black and Leff operational model in Prism 7.0 to obtain Log(τ/KA) values for each pathway (Tango and Gi-cAMP). Within each signaling pathway, a difference of Log(τ/KA), ΔLog(τ/KA), between a test compound and selected reference (melatonin in this case) was calculated. For a testing compound, the difference of ΔLog(τ/KA), ΔΔLog(τ/KA), was then obtained between two pathways. The bias factor is 10^ΔΔLog(τ/KA).

[8] = ligand efficiency (based on EC50)

In the case of COc1ccnc(N(C)CCNC(C)=O)n1 [Compound 21, N-{2-[(4-methoxypyrimidin-2-yl)(methyl)amino]ethyl}acetamide], the Ki (MT1 [1]) is reported as 490 nM, the EC50 (MT1 [2]; SEM, N = 3, read-out: MT1 pEC50 ± SEM (converted)) is reported as 12.3 nM and the EC50 (MT1 [2]; read-out: MT1 EC50) is reported as 12 nM. For the same compound, the “MT1 LE” value (MT1 [2]; [8]) was 0.69 kcal/mol per non-hydrogen atom, the Emax (MT1 [2]; read-out: MT1 Emax ± SEM) was 93.8 ± 2.5% and the “binding at panel of 47 common drug targets” value [3] was “did not show any substantial binding”. For the same compound, the “β-arrestin signaling / arrestin recruitment at MT2” value (MT2 [4]) was “dramatically reduced arrestin recruitment; also recorded: marked reduction in β-arrestin signaling compared to G-protein”, the Ki (MT2 [5]) was 123 nM and the “MT2/MT1 Selectivity” value (MT2 [6]; Antilog (log(Emax/EC50) MT2 - log (Emax/EC50) MT1), values below 1 = MT1 selectivity) was 30 fold and 30.6 fold. For the same compound, the EC50 (MT2 [6]; Gi/o mediated, SEM, N = 3, read-out: MT2 pEC50 ± SEM (converted)) was 0.363 nM, the Emax (MT2 [6]; MT2, activation compared to melatonin, read-out: MT2 Emax ± SEM) was 86.1 ± 3.2% and the “MT2 LE” value (MT2 [6]; [8]) was 0.83 kcal/mol per non-hydrogen atom. The bias factor (MT2 [7]) was 15.5.
